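A five-concentration, 48-hour dose response in 96-well plates underlies each endpoint, interpolated linearly between surrounding concentrations. At the GI50, growth is halved.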 Active and inactive are the calls of the source. No stated cut-off is given here; in the data, active = GI50 up to about 1.1 µM and inactive = higher.
Assays:
Assay in all cases: DTP human tumour cell line panel, 48 h
TK-10 = tested on: TK-10
OVCAR-3 = tested on: OVCAR-3
MDA-MB-435 = tested on: MDA-MB-435
M14 = tested on: M14
SK-MEL-28 = tested on: SK-MEL-28
K562 = tested on: K562
A549 = tested on: A549
IGROV-1 = tested on: IGROV-1
MDA-MB-231 = tested on: MDA-MB-231
UACC-62 = tested on: UACC-62
ACHN = tested on: ACHN
OVCAR-4 = tested on: OVCAR-4
HCT-116 = tested on: HCT-116
HOP-92 = tested on: HOP-92
LOX IMVI = tested on: LOX IMVI
HCT-15 = tested on: HCT-15
KM12 = tested on: KM12
SR = tested on: SR
DU-145 = tested on: DU-145
U-251 = tested on: U-251
RXF 393 = tested on: RXF 393
MCF7 = tested on: MCF7
786-0 = tested on: 786-0
OVCAR-5 = tested on: OVCAR-5
HOP-62 = tested on: HOP-62
NCI-H23 = tested on: NCI-H23
OVCAR-8 = tested on: OVCAR-8
UO-31 = tested on: UO-31
NCI-H522 = tested on: NCI-H522
CCRF-CEM = tested on: CCRF-CEM
SF-295 = tested on: SF-295
SNB-75 = tested on: SNB-75
HT-29 = tested on: HT-29
PC-3 = tested on: PC-3
COLO 205 = tested on: COLO 205
SN12C = tested on: SN12C
UACC-257 = tested on: UACC-257
SK-MEL-5 = tested on: SK-MEL-5
SF-539 = tested on: SF-539
SNB-19 = tested on: SNB-19
NCI/ADR-RES = tested on: NCI/ADR-RES
SK-MEL-2 = tested on: SK-MEL-2
SW-620 = tested on: SW-620
HCC 2998 = tested on: HCC 2998
MDA-N = tested on: MDA-N
SK-OV-3 = tested on: SK-OV-3
MOLT-4 = tested on: MOLT-4
SF-268 = tested on: SF-268
EKVX = tested on: EKVX
BT-549 = tested on: BT-549
RPMI-8226 = tested on: RPMI-8226
CAKI-1 = tested on: CAKI-1
Hs-578T = tested on: Hs-578T
NCI-H460 = tested on: NCI-H460

With `CC(=O)N(C(C)=O)n1c(-c2ccccc2)n[nH]c1=O` the GI50 (TK-10) was > 100 µM (inactive), the GI50 (OVCAR-3) was > 100 µM (inactive) and the GI50 (MDA-MB-435) was > 100 µM (inactive). The GI50 (M14) was > 100 µM (inactive), the GI50 (SK-MEL-28) was > 100 µM (inactive) and the GI50 (K562) was > 100 µM (inactive). The GI50 (A549) was > 100 µM (inactive), the GI50 (IGROV-1) was > 100 µM (inactive) and the GI50 (MDA-MB-231) was > 100 µM (inactive). The GI50 (UACC-62) was > 100 µM (inactive), the GI50 (ACHN) was > 100 µM (inactive) and the GI50 (OVCAR-4) was > 100 µM (inactive). The GI50 (HCT-116) was > 100 µM (inactive), the GI50 (HOP-92) was > 100 µM (inactive) and the GI50 (LOX IMVI) was > 100 µM (inactive). For the same compound, the GI50 (HCT-15) was over 100 µM, the GI50 (KM12) was > 100 µM (inactive) and the GI50 (SR) was > 100 µM (inactive). For the same compound, the GI50 (DU-145) was > 100 µM (inactive), the GI50 (U-251) was > 100 µM (inactive) and the GI50 (RXF 393) was > 100 µM (inactive). For the same compound, the GI50 (MCF7) was > 100 µM (inactive), the GI50 (786-0) was > 100 µM (inactive) and the GI50 (OVCAR-5) was > 100 µM (inactive). The GI50 (HOP-62) was > 100 µM (inactive), the GI50 (NCI-H23) was > 100 µM (inactive) and the GI50 (OVCAR-8) was > 100 µM (inactive). The GI50 (UO-31) was > 100 µM (inactive), the GI50 (NCI-H522) was > 100 µM (inactive) and the GI50 (CCRF-CEM) was > 100 µM (inactive). For the same compound, the GI50 (SF-295) was > 100 µM (inactive), the GI50 (SNB-75) was > 100 µM (inactive) and the GI50 (HT-29) was > 100 µM (inactive). For the same compound, the GI50 (PC-3) was > 100 µM (inactive), the GI50 (COLO 205) was > 100 µM (inactive) and the GI50 (SN12C) was > 100 µM (inactive). The GI50 (UACC-257) was > 100 µM (inactive), the GI50 (SK-MEL-5) was > 100 µM (inactive) and the GI50 (SF-539) was > 100 µM (inactive). For the same compound, the GI50 (SNB-19) was > 100 µM (inactive), the GI50 (NCI/ADR-RES) was > 100 µM (inactive) and the GI50 (SK-MEL-2) was > 100 µM (inactive). The GI50 (SW-620) was > 100 µM (inactive), the GI50 (HCC 2998) was > 100 µM (inactive) and the GI50 (MDA-N) was > 100 µM (inactive). The GI50 (SK-OV-3) was > 100 µM (inactive), the GI50 (MOLT-4) was > 100 µM (inactive) and the GI50 (SF-268) was > 100 µM (inactive). The GI50 (EKVX) was > 100 µM (inactive), the GI50 (BT-549) was > 100 µM (inactive) and the GI50 (RPMI-8226) was > 100 µM (inactive).
In the case of `Cc1c(Cc2ccccc2)n(C(C)OCCN(OC(=O)Oc2ccccc2)C(=O)Oc2ccccc2)c(=O)[nH]c1=O` (stereo not drawn), the GI50 (OVCAR-3) is reported as 19 µM (inactive), the GI50 (MDA-MB-435) is reported as 23.4 µM (inactive) and the GI50 (M14) is reported as 16.1 µM (inactive). The GI50 (SK-MEL-28) was 21.3 µM (inactive), the GI50 (K562) was 26.9 µM (inactive) and the GI50 (A549) was 25.2 µM (inactive). For the same compound, the GI50 (IGROV-1) was 14.9 µM (inactive), the GI50 (MDA-MB-231) was 19.5 µM (inactive) and the GI50 (UACC-62) was 16.3 µM (inactive). For the same compound, the GI50 (ACHN) was 26.3 µM (inactive), the GI50 (OVCAR-4) was 19.7 µM (inactive) and the GI50 (HCT-116) was 20.5 µM (inactive). The GI50 (HOP-92) was 13.5 µM (inactive), the GI50 (HCT-15) was 14.6 µM and the GI50 (KM12) was 15.8 µM (inactive). The GI50 (SR) was 28.6 µM (inactive), the GI50 (DU-145) was 28.5 µM (inactive) and the GI50 (U-251) was 19 µM (inactive). For the same compound, the GI50 (RXF 393) was 15.8 µM (inactive), the GI50 (MCF7) was 23.4 µM (inactive) and the GI50 (786-0) was 18.3 µM (inactive). The GI50 (OVCAR-5) was 17.2 µM (inactive), the GI50 (CAKI-1) was 18.7 µM (inactive) and the GI50 (HOP-62) was 18.1 µM (inactive). The GI50 (NCI-H23) was 16.3 µM (inactive), the GI50 (OVCAR-8) was 16.9 µM (inactive) and the GI50 (UO-31) was 14.5 µM (inactive). The GI50 (NCI-H522) was 14.5 µM (inactive), the GI50 (CCRF-CEM) was 12.4 µM (inactive) and the GI50 (Hs-578T) was 12.9 µM (inactive). For the same compound, the GI50 (SF-295) was 16 µM (inactive), the GI50 (SNB-75) was 1.61 µM (inactive) and the GI50 (HT-29) was 16.1 µM (inactive). For the same compound, the GI50 (PC-3) was 21.9 µM (inactive), the GI50 (COLO 205) was 18.3 µM (inactive) and the GI50 (NCI-H460) was 17.8 µM (inactive). For the same compound, the GI50 (SN12C) was 19.8 µM (inactive), the GI50 (UACC-257) was 15 µM (inactive) and the GI50 (SK-MEL-5) was 14.3 µM (inactive). For the same compound, the GI50 (SF-539) was 19.1 µM (inactive), the GI50 (SNB-19) was 25.1 µM (inactive) and the GI50 (NCI/ADR-RES) was 16.9 µM (inactive). The GI50 (SK-MEL-2) was 19.7 µM (inactive), the GI50 (SW-620) was 20.7 µM (inactive) and the GI50 (HCC 2998) was 17.3 µM (inactive). For the same compound, the GI50 (MDA-N) was 19.3 µM (inactive), the GI50 (SK-OV-3) was 17.4 µM (inactive) and the GI50 (MOLT-4) was 14.5 µM (inactive). The GI50 (SF-268) was 14.7 µM (inactive), the GI50 (EKVX) was 14.4 µM (inactive) and the GI50 (BT-549) was 17.1 µM (inactive). For the same compound, the GI50 (RPMI-8226) was 24.2 µM (inactive).

Reference: ChEMBL document CHEMBL1201862, “PubChem BioAssay data set” (2004)
